From PMC8552062, “Contributions of UDP-Glucuronosyltransferases to Human Hepatic and Intestinal Metabolism of Ticagrelor and Inhibition of UGTs and Cytochrome P450 Enzymes by Ticagrelor and its Glucuronidated Metabolite” (Frontiers in Pharmacology, 2021)

How the values were obtained:
Format in all cases: in vitro ADME
Set-up in all cases: purchased BD Gentest; host or cells: baculovirus-infected insect cells
UGT1A9 = biological target: T1, UGT1A9 (Homo sapiens, UniProt O60656); test: Ticagrelor glucuronidation by recombinant human UGT1A9; conditions: recombinant human UGT1A9, pH 7.4
T1 sequence (O60656 26-530): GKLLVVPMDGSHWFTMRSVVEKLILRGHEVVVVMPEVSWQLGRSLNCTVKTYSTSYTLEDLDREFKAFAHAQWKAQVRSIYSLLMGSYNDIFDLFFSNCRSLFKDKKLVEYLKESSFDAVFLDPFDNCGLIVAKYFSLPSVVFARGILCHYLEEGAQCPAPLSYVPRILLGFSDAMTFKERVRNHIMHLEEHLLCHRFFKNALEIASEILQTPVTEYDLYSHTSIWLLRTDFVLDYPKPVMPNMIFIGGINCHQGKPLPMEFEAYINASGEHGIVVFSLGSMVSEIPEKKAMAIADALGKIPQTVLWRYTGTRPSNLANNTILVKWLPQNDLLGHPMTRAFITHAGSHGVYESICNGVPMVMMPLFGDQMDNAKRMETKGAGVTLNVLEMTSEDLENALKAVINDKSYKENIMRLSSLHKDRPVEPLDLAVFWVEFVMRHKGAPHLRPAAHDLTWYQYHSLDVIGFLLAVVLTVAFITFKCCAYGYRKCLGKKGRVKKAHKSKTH
Procedure: (§1) Ticagrelor glucuronidation was investigated in an in vitro incubation system by using HLM, HIM, and recombinant human UGTs. The incubation system consisted of enzyme sources (HLM, HIM, or human recombinant UGTs), various concentrations of ticagrelor (dissolved in 50% methanol, 1% v/v, 1, 2, 5, 10, 20, 50, 100, 200, 500 μM of final concentration), alamethicin (50 μg/mg protein), 5 mM MgCl2, 100 mM tris-HCL buffer (pH 7.4), and 5 mM UDPGA in a total volume of 100 μl. Alamethicin is a pore-forming polypeptide used to activate UGTs in HLM and HIM ([Fisher et al., 2000]). Preliminary studies were conducted to determine the optimal protein concentrations and incubation times. Linear conditions of ticagrelor-O-Glu formation from ticagrelor, i.e., HLM, 0.2 mg of protein/ml and 60 min, HIM, 0.2 mg of protein/ml and 60 min, and recombinant human UGTs, 0.2 mg of protein/ml and 60 min were selected. The incubation mixture without UDPGA was placed on ice for 15 min to activate UGT by alamethicin. […]
(§2) Kinetic analyses were performed using the mean values of triplicate determinations with either pooled HLM, HIM, or recombinant human UGTs. All data were analyzed by nonlinear regression analysis using the GraphPad Prism 6 (GraphPad Software Inc., CA, United States). […] Intrinsic clearance (CLint) was calculated by dividing Vmax by Km.

UGT1A4 = biological target: T2, UGT1A4 (Homo sapiens, UniProt P22310); test: Ticagrelor glucuronidation by recombinant human UGT1A4; conditions: recombinant human UGT1A4, pH 7.4
T2 sequence (P22310 29-534): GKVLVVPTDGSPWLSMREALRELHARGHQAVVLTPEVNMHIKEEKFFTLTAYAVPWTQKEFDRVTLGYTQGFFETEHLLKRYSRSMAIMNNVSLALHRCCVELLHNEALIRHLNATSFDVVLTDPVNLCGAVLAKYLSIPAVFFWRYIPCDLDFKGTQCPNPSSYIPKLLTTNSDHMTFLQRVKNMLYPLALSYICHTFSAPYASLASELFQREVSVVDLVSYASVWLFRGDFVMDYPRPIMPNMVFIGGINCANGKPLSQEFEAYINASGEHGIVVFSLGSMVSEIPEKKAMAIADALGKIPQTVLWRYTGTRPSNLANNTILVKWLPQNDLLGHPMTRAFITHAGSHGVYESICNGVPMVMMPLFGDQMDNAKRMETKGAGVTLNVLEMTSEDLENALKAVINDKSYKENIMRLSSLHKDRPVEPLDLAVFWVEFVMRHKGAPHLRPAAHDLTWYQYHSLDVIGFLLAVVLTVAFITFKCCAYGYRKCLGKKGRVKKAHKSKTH
Procedure: as §1, §2

UGT1A6 = biological target: T3, UGT1A6 (Homo sapiens, UniProt P19224); test: Ticagrelor glucuronidation screen, recombinant human UGT1A6; conditions: 10 μM ticagrelor
T3 sequence (P19224 27-532): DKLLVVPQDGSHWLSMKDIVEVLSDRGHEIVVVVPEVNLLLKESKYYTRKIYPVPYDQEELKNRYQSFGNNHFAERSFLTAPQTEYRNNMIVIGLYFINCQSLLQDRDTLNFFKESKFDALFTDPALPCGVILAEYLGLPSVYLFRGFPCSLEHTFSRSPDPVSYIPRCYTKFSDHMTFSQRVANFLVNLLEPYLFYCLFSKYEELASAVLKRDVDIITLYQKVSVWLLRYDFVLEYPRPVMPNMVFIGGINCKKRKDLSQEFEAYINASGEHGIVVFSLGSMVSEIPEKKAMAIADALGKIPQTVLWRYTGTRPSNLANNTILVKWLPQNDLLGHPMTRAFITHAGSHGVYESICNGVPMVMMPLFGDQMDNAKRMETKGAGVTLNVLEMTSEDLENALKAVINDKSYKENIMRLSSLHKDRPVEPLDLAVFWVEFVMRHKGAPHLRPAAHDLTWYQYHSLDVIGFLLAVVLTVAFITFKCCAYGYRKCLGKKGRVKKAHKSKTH
Procedure: as §1, with “alamethicin. After pre-incubation for 5 min at 37°C, the reactions were started by the addition of UDPGA. After another 60 min of incubation at 37°C, the reaction was terminated by adding 100 μl of acetonitrile containing internal standard (diazepam). The mixture vortexed for 2 min and then centrifuged at 14,000 rpm for 10 min at 4°C.” for “alamethicin.”

Q: For `CCCSc1nc(N[C@@H]2C[C@H]2c2ccc(F)c(F)c2)c2nnn([C@@H]3C[C@H](OCCO)[C@@H](O)[C@H]3O)c2n1` [Ticagrelor], which microsomal CLint (UGT1A9) is on record?
A: 0.56 µL/min/mg

Q: And the microsomal CLint (UGT1A4)?
A: 0.04 µL/min/mg

Q: And the “glucuronidation activity for ticagrelor” value (UGT1A6)?
A: no glucuronidation activities
